{"source": "patent US9662339B2", "about": "“Benzodioxane inhibitors of leukotriene production for combination therapy” (Boehringer Ingelheim International GmbH, priority 2012, dated 2017)", "key": {"[1]": {"tested_on": "synthesis of LTB4 in human whole blood", "assay": "LTB4 production inhibition assay in human whole blood (HWB)", "assay_type": "cell-based", "conditions": "heparinized human whole blood, calcimycin 20 μM, 37° C.", "experimental": "The compounds of the invention are additionally tested in a human whole blood (HWB) assay to determine their ability to inhibit the synthesis of LTB4 in a cellular system. Compounds are combined with heparinized human whole blood and incubated for 15 minutes at 37° C. Calcimycin (20 μM final, prepared in phosphate-buffered saline, pH 7.4) is then added and the mixture is incubated for another 30 minutes at 37° C. The samples are centrifuged for 5 min at low speed (1500×g) and the plasma layer is removed. Plasma LTB4 concentrations are then measured using an antibody-based homogenous time-resolved fluorescence method (CisBio, Bedford, Mass.). In general, the preferred potency range (IC50) of compounds in the HWB assay is between 10 nM to 10 μM, the more preferred potency range is 10 nM to 1 μM, and the most preferred potency range is 10 nM to 100 nM."}, "human LTA4 hydrolase": {"target": "human LTA4 hydrolase (Homo sapiens (Human), UniProt P09960)", "sequence (P09960 whole entry)": "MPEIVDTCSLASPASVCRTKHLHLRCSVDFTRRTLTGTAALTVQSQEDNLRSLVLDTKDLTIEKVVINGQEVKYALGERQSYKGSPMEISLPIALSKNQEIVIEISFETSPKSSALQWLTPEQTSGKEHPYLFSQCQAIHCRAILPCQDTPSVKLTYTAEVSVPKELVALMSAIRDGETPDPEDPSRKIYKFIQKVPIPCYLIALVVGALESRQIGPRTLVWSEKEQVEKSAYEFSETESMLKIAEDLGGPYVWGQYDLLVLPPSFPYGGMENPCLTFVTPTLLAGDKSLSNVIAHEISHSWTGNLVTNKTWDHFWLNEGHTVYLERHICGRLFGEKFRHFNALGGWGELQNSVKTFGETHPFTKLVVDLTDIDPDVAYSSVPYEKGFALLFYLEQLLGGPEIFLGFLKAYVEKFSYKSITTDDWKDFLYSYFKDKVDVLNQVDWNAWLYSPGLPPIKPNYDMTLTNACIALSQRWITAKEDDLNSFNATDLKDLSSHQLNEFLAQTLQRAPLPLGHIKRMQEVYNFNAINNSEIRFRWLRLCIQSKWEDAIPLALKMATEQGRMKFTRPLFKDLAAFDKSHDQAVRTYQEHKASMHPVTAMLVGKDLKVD", "assay": "LTA4H Enzyme assay (cleavage of Arg-AMC, fluorescence)", "assay_type": "biochemical", "conditions": "LTA4H Enzyme 1 nM, Arg-AMC substrate 50 μM, room temperature 1 h", "experimental": "The compounds of the invention are assessed for the ability to interact with human LTA4 hydrolase in an enzymatic assay that measures the ability of the enzyme to cleave the peptide bond of arginyl-aminomethylcoumarin (Arg-AMC). LTA4H Enzyme (1 nM final), Arg-AMC substrate (50 μM final), and compound are combined in a reaction buffer (50 mM Tris-HCl (pH 7.5), 100 mM KCl, 0.5% bovine serum albumin) at room temperature for 1 h. The formation of product is assessed by measuring the fluorescence of aminomethylcoumarin product (excitation wavelength 380 nm/emission wavelength 460 nm)."}, "[2]": {"tested_on": "apoE-/- mouse model of atherosclerosis", "assay": "apoE-/- mouse model of atherosclerosis", "assay_type": "in vivo"}, "[3]": {"tested_on": "New Zealand white rabbit model of atherosclerosis", "assay": "New Zealand white rabbit model of atherosclerosis, combination with simvastatin", "assay_type": "in vivo", "experimental": "In Vivo Studies Materials and Method: Rabbit Atherosclerosis Study Methods\nThe in-life portions of these studies were conducted at Covance Labs (Greenfield, Ind.). NZW rabbits were placed on a HF/HC diet manufactured by Research Diets Inc. (C30355) containing 0.25% cholesterol, 3% peanut oil, and 3% coconut oil for 3 weeks before randomization into treatment groups of 23 animals based on cholesterol levels and LTB4 production. Rabbits with cholesterol levels below 250 mg/dL at the start of treatment were removed from further analysis. The rabbits were fed 125 g of rabbit chow each day and both food consumption and body weights were measured throughout the study period. After 3 weeks the rabbits were either continued on this same diet for 10 weeks (control) or treated with Compound 200 in the same food formulation. Compound treated groups are group 1: compound 200 (3 mg/kg) and simvastatin (2.5 mg/kg); and group 2: compound 200 (15 mg/kg) and simvastatin (2.5 mg/kg). Another group of rabbits were treated with simvastatin alone at a dose of 2.5 mg/kg. During this time, plasma samples were taken for cholesterol, compound exposure, ALT and AST activity, and ex vivo LTB4 production at treatment week 0, 2, 4 and 10. Plasma samples for HDL and LDL levels were taken at week 2, 4 and 10. The animals were sacrificed after ten weeks of treatment, perfused with 10% formalin, and their descending aortas dissected out and placed in […] for transport to Boehringer Ingelheim Pharmaceuticals Inc. for processing. The aortas were pinned out onto the silicone surface inside a metal dish and stained with Sudan IV stain. Atherosclerosis development was determined by image analysis software after photographing the vessels. The percentage of the total vessel staining positive was determined\nThe mean value of each parameter was calculated for each different treatment group and compared to the control value. A one way ANOVA was used to compare treatment groups to the control group using a Dunnett's test for multiplicity of measures using Excell Stat software. As a pre-planned measurement the mean value of compound 200 treatment groups were individually compared to the simvastatin alone group by a Student's T test. Statistical significance was considered at the p<0.05 level."}, "[4]": {"conditions": "in combination with simvastatin, compared to the simvastatin treated group"}}, "data": [{"molecule": "COCC(=O)NC1CCN(Cc2ccc([C@H]3COc4cccnc4O3)cc2)CC1", "note": "[Example 252, N-{1-[(S)-4-(2,3-Dihydro-[1,4]dioxino[2,3-b]pyridin-3-yl)-benzyl]-piperidin-4-yl}-2-methoxy-acetamide]", "values": [{"measurement": "IC50", "setting": "[1]", "value": 42, "unit": "nM"}]}, {"molecule": "c1ccc2c(c1)OCC(c1ccc(CNCC3CC3)cc1)O2", "note": "(stereo not shown) [Example 43, 1-cyclopropyl-N-[4-(2,3-dihydro-1,4-benzodioxin-2-yl)benzyl]methanamine]", "values": [{"measurement": "IC50", "setting": "human LTA4 hydrolase", "value": 4.42, "unit": "nM"}]}, {"molecule": "O=C(O)CCCC1CCN(Cc2ccc(C3COc4ccccc4O3)cc2)CC1", "note": "(racemic) [Example 26, 4-{1-[4-(2,3-dihydro-1,4-benzodioxin-2-yl)benzyl]piperidin-4-yl}butanoic acid]", "values": [{"measurement": "IC50", "setting": "human LTA4 hydrolase", "value": 0.43, "unit": "nM"}]}, {"molecule": "O=C(O)C1CCN(Cc2ccc([C@H]3COc4ccccc4O3)cc2)CC1", "note": "[Example 200, (S)-1-[4-(2,3-dihydro-benzo[1,4]dioxin-2-yl)-benzyl]-piperidine-4-carboxylic acid]", "values": [{"measurement": "plaque area in the descending aorta", "setting": "[2]", "value": "reduce plaque area"}, {"measurement": "reduction in plaque area within the descending aorta in addition to the reduction due to statin treatment", "setting": "[3]; in combination with simvastatin 2.5 mg/kg vs simvastatin alone, 10 weeks chow dosing, p<0.05", "value": 35, "unit": "%"}, {"measurement": "plaque area in the descending aorta of rabbits (FIG. 1)", "setting": "[3]; in combination with simvastatin compared to simvastatin treatment alone", "value": "further reduces plaque area"}, {"measurement": "effect on body weight", "setting": "[3]; [4]", "value": "no significant effects"}, {"measurement": "effect on plasma cholesterol", "setting": "[3]; [4]", "value": "no significant effects"}, {"measurement": "effect on triglycerides", "setting": "[3]; [4]", "value": "no significant effects"}]}, {"molecule": "c1ccc2c(c1)OCC(c1ccc(CN3CCOCC3)cc1)O2", "note": "(stereo not shown) [Example 2, 4-[4-(2,3-dihydro-1,4-benzodioxin-2-yl)benzyl]morpholine]", "values": [{"measurement": "IC50", "setting": "human LTA4 hydrolase", "value": 2.45, "unit": "nM"}]}, {"molecule": "CC(=O)N1CCN(Cc2ccc(C3COc4ccccc4O3)cc2)CC1", "note": "(stereo not shown) [Example 11, 1-{4-[4-(2,3-dihydro-1,4-benzodioxin-2-yl)benzyl]piperazin-1-yl}ethanone]", "values": [{"measurement": "IC50", "setting": "human LTA4 hydrolase", "value": 2.95, "unit": "nM"}]}, {"molecule": "O=C(C1CCN(Cc2ccc(C3COc4ccccc4O3)cc2)CC1)N1CCOCC1", "note": "(racemic) [Example 37, {1-[4-(2,3-dihydro-1,4-benzodioxin-2-yl)benzyl]piperidin-4-yl}(morpholin-4-yl)methanone]", "values": [{"measurement": "IC50", "setting": "human LTA4 hydrolase", "value": 1.05, "unit": "nM"}]}, {"molecule": "OCC1CCN(Cc2ccc(C3COc4ccccc4O3)cc2)CC1", "note": "(stereo not shown) [Example 27, {1-[4-(2,3-dihydro-1,4-benzodioxin-2-yl)benzyl]piperidin-4-yl}methanol]", "values": [{"measurement": "IC50", "setting": "human LTA4 hydrolase", "value": 1.2, "unit": "nM"}]}, {"molecule": "c1ccc2c(c1)OCC(c1ccc(CN3CCCC3)cc1)O2", "note": "(racemic) [Example 1, 1-[4-(2,3-dihydro-1,4-benzodioxin-2-yl)benzyl]pyrrolidine]", "values": [{"measurement": "IC50", "setting": "human LTA4 hydrolase", "value": 0.38, "unit": "nM"}]}, {"molecule": "NC(=O)C1CCCN(Cc2ccc(C3COc4ccccc4O3)cc2)C1", "note": "(stereo not shown) [Example 114, 1-[4-(2,3-dihydro-1,4-benzodioxin-2-yl)benzyl]piperidine-3-carboxamide]", "values": [{"measurement": "IC50", "setting": "human LTA4 hydrolase", "value": 0.77, "unit": "nM"}]}, {"molecule": "CC(C)(O)C1CCN(Cc2ccc(C3COc4ccccc4O3)cc2)CC1", "note": "(stereo not shown) [Example 28, 2-{1-[4-(2,3-dihydro-1,4-benzodioxin-2-yl)benzyl]piperidin-4-yl}propan-2-ol]", "values": [{"measurement": "IC50", "setting": "human LTA4 hydrolase", "value": 3.4, "unit": "nM"}]}, {"molecule": "F[C@H]1CCN(Cc2ccc(C3COc4ccccc4O3)cc2)C1", "note": "(stereo partly drawn) [Example 115, (3S)-1-[4-(2,3-dihydro-1,4-benzodioxin-2-yl)benzyl]-3-fluoropyrrolidine]", "values": [{"measurement": "IC50", "setting": "human LTA4 hydrolase", "value": 3.03, "unit": "nM"}]}, {"molecule": "COCCN(C)Cc1ccc(C2COc3ccccc3O2)cc1", "note": "(stereo not shown) [Example 33, N-[4-(2,3-dihydro-1,4-benzodioxin-2-yl)benzyl]-2-methoxy-N-methylethanamine]", "values": [{"measurement": "IC50", "setting": "human LTA4 hydrolase", "value": 3.19, "unit": "nM"}]}, {"molecule": "COC1CCN(Cc2ccc(C3COc4ccccc4O3)cc2)C1", "note": "(stereo not shown) [Example 47, 1-[4-(2,3-dihydro-1,4-benzodioxin-2-yl)benzyl]-3-methoxypyrrolidine]", "values": [{"measurement": "IC50", "setting": "human LTA4 hydrolase", "value": 1.73, "unit": "nM"}]}]}
